Results reported in publication PMC3876054, “Tyrosol and Its Analogues Inhibit Alpha-Melanocyte-Stimulating Hormone Induced Melanogenesis” (International Journal of Molecular Sciences, 2013).

How the values were obtained:
mushroom tyrosinase [1] = molecular target: T1, mushroom tyrosinase (Agaricus bisporus, UniProt C7FF04); test: spectrophotometric dopachrome assay with L-tyrosine; % inhibition at […]; format: biochemical; conditions: read-out: % inhibition at 4 mM
T1 construct: gene PPO3

mushroom tyrosinase [2] = molecular target: T1, mushroom tyrosinase; test: as above; format: biochemical; conditions: read-out: % inhibition at 0.4 mM

T1 sequence (C7FF04 2-392): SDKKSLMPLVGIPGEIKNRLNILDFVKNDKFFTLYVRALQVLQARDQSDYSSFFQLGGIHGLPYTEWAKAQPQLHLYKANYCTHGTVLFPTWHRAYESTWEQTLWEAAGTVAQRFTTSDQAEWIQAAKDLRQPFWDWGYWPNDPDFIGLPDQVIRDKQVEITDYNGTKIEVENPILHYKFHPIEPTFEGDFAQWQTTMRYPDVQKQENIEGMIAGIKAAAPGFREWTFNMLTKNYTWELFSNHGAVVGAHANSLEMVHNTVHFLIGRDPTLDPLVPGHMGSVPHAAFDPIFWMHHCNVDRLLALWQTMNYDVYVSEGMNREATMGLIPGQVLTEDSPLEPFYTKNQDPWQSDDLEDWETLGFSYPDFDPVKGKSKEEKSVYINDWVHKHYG

| inhibition at 4000 µM (mushroom tyrosinase [1]) [%] | inhibition at 400 µM (mushroom tyrosinase [2]) [%] | SMILES |
| --- | --- | --- |
| 42.5 | – | OCCc1ccc(O)cc1 [compound 1, tyrosol] |
| 45.3 | – | OCCc1cccc(O)c1 [compound 2, 2-(3-hydroxyphenyl)ethanol] |
| 46.7 | – | Cc1ccc(CCO)cc1 [compound 10, 2-(4-methylphenyl)ethanol] |
| – | 22.2 | OC[C@H]1O[C@@H](OCCc2ccc(O)cc2)[C@H](O)[C@@H](O)[C@@H]1O [compound 11, salidroside] |
